Measurements published in US11155567B2, “Sting agonist compounds and methods of use” (Mersana Therapeutics, Inc., priority 2019, dated 2021).

Assays:
Format in all cases: cell-based
[1] = biological target: T1, R232H human STING variant (Homo sapiens, UniProt Q86WV6); experiment: IRF3 reporter induction in THP1-Dual KI-hSTING-H232 Cells; conditions: THP1-Dual KI-hSTING-H232 Cells (R232H Haplotype)
T1 construct: host or cells: THP1-Dual KI-hSTING-H232 cells, generated from THP1-Dual KO-STING cells
Procedure: (§1) THP1-Dual™ Human Monocytes cells with the homozygous HAQ allele, known to be a natural variant allele of STING occurring in 20% of the human population (Invivogen) have been engineered with two independent gene reporter systems: a secreted embryonic alkaline phosphatase (SEAP) reporter gene for NFkB activity, and secreted luciferase reporter for […] (IRF3) activity were used. 4×10^5 THP1-Dual™ cells were incubated with test Compounds in a 5-fold titration steps from 1 to 0.0128 μM in RPMI media with 10% FBS, for 24 hours at 37° C. with 5% CO2. Cell culture supernatants (20 μl) from each incubated sample was added to resuspended QUANTI-Blue™ Solution (Invivogen, 180 μl) in each well of a flat-bottom 96-well plate, then incubated for 2 h. NFkB levels were evaluated using a spectrophotometer at 620-655 nm.
(§2) To evaluate IRF3 reporter levels, cell culture supernatant (20 μl) from each incubated sample was added to QUANTI-Luc™ assay solution (Invivogen, 50 μl), and the luminescence was measured with a SpectraMax M3 spectrophotometer (Molecular Devices).
(§3) NFkB and IRF3 reporter levels were also determined for THP1-Dual™ KI-hSTING-H232 Cells and THP1-Dual™ KI-hSTING-R232 Cells. THP1-Dual™ KI-hSTING-H232 Cells (R232H Haplotype) were generated from THP1-Dual™ KO-STING cells by knockin of the intronless coding sequence (from the ATG to TGA) of the R232H human STING variant (Invivogen). R232H has been identified as a natural variant allele of STING occurring in ˜14% of the human population. THP1-Dual™ KI-hSTING-R232 Cells (R232 Haplotype) were generated from THP1-Dual™ KO-STING cells by knockin of the intronless coding sequence (from the ATG to the TGA) of the R232 hSTING variant. Genomic studies indicate that this variant, which contains an arginine at position 232 (R232), is the most prevalent variant with an occurrence (homozygous allele) of ˜45-58% in the human population.
(§4) The EC50 value was determined from the dose response curve based on reference Compounds. Table 2a provides the results for IRF3 reporter induction THP1-Dual™ Human Monocytes cells and Table 2b provides the results for IRF3 reporter induction in THP1-Dual™ KI-hSTING-H232 Cells and THP1-Dual™ KI-hSTING-R232 Cells (“A” means <30 nM; “B” means ≥30 nM and <100 nM; “C” means ≥100 nM).

[2] = biological target: T2, Human STING (Homo sapiens, UniProt Q86WV6, G230A/H232R/R293Q/R71H); experiment: Activation of human STING signaling in permeabilized THP1 cells, IRF3 induction; conditions: THP1-Dual cells permeabilized with digitonin buffer 30 minutes on ice, then 24 h in RPMI media
T2 construct: host or cells: THP1-Dual cells, digitonin-permeabilized
Procedure: as §2
4×10^5 THP1-Dual™ cells (NF-κB-SEAP and IRF-Lucia luciferase Reporter Monocytes, Invivogen) were incubated with test Compounds in a 5-fold titration steps from […] in permeabilized buffer (50 mM HEPES pH 7.0, 100 mM KCl, 3 mM MgCl2, 85 mM sucrose, 0.2% BSA, 1 mM ATP, 0.1 mM GTP, 0.1 mM TTP, 1 μg/ml digitonin) for 30 minutes on ice. Cells were then washed and incubated in a fresh RPMI media with 10% FBS at 37° C. with 5% CO2 for 24 h. Cell culture supernatants from each sample were collected and NFkB and IRF3 were evaluated as above. Table 3 provides the results for IRF3 induction (“A” means <1 μM; “B” means ≥1 μM and <50 μM; “C” means ≥50 μM).

[3] = biological target: T3, R232 hSTING variant (Homo sapiens, UniProt Q86WV6, H232R); experiment: IRF3 reporter induction in THP1-Dual KI-hSTING-R232 Cells; conditions: THP1-Dual KI-hSTING-R232 Cells (R232 Haplotype)
T3 construct: expressed in transfected cells; host or cells: THP1-Dual KI-hSTING-R232 cells, generated from THP1-Dual KO-STING cells
Procedure: as §1, §2, §3, §4

[4] = biological target: T4, Human STING (HAQ allele) (Homo sapiens, UniProt Q86WV6, G230A/H232R/R293Q/R71H); experiment: IRF3 reporter induction in THP1-Dual Human Monocytes cells (homozygous HAQ STING allele); conditions: IRF3 reporter (secreted luciferase), 24 hours incubation
T4 construct: THP1-Dual™ Human Monocytes cells with the homozygous HAQ allele; host or cells: THP1-Dual human monocytes
Procedure: as §1, §2, §4

T3 sequence (Q86WV6 whole entry H232R): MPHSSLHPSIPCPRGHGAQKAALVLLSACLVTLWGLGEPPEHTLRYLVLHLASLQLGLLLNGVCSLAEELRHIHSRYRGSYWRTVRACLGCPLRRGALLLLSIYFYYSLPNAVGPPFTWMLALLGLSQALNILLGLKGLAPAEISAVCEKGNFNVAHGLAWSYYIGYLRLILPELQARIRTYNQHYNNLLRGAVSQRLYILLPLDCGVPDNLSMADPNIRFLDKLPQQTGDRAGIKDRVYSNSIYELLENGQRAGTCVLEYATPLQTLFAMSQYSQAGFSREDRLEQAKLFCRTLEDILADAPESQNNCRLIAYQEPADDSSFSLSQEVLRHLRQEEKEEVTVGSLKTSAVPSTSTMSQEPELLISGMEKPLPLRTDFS
T1 sequence (Q86WV6 whole entry, stated change not applied): as the sequence (Q86WV6 whole entry H232R) above, with R232H counted along it
T4 sequence (Q86WV6 whole entry R71H/G230A/H232R/R293Q): as the sequence (Q86WV6 whole entry H232R) above, with R71H, G230A, R293Q counted along it
T2 sequence (Q86WV6 whole entry R71H/G230A/H232R/R293Q): as the sequence (Q86WV6 whole entry H232R) above, with R71H, G230A, R293Q counted along it

Structure (SMILES) | EC50 [1] [µM] | EC50 [2] [µM] | EC50 [3] [µM] | EC50 [4] [µM]
CCc1nc(C)oc1C(=O)/N=c1\sc2cc(C(N)=O)cc(OC)c2n1C/C=C/Cn1c(NC(=O)c2oc(C)nc2CC)nc2cc(C(N)=O)cc(OCCCC(=O)O)c21 [compound 66] | ≥ 0.1 | < 1 | < 0.03 | ≥ 0.1
CCc1nc(C)oc1C(=O)/N=c1\sc2cc(C(N)=O)cc(OCCCO)c2n1C/C=C/Cn1c(NC(=O)c2oc(C)nc2CC)nc2cc(C(N)=O)cnc21 [compound 146] | < 0.03 | < 1 | < 0.03 | ≥ 0.1
CCc1nc(C)oc1C(=O)/N=c1\sc2cc(C(N)=O)cc(OCCCO)c2n1C/C=C/Cn1c(NC(=O)c2cc(C)nn2CC)nc2cc(C(N)=O)cnc21 [compound 148] | < 0.03 | < 1 | < 0.03 | ≥ 0.1
CCc1nc(C)oc1C(=O)/N=c1\sc2nc(C(N)=O)cnc2n1C/C=C/Cn1c(NC(=O)c2oc(C)nc2CC)nc2cc(C(N)=O)cc(OCCCO)c21 [compound 167] | 0.03 to 0.1 | – | 0.03 to 0.1 | ≥ 0.1

Second part, the molecule after the results:

EC50 [1] [µM] | EC50 [2] [µM] | EC50 [3] [µM] | EC50 [4] [µM] | Structure (SMILES)
< 0.03 | < 1 | < 0.03 | 0.03 to 0.1 | CCc1nc(C)oc1C(=O)Nc1nc2cc(C(N)=O)cc(OC)c2n1C/C=C/Cn1c(NC(=O)c2oc(C)nc2CC)nc2cc(C(N)=O)cc(OCCCO)c21 [compound 9]
< 0.03 | < 1 | < 0.03 | ≥ 0.1 | CCc1nc(C)oc1C(=O)/N=c1\sc2cc(C(N)=O)cc(OC)c2n1C/C=C/Cn1c(NC(=O)c2oc(C)nc2CC)nc2cc(C(N)=O)cc(OCCCO)c21 [compound 63]
< 0.03 | – | < 0.03 | ≥ 0.1 | CCc1nc(C)oc1C(=O)Nc1nc2cc(C(N)=O)cc(OCCCO)c2n1C/C=C/Cn1/c(=N/C(=O)c2cc(C)nn2CC)sc2cc(C(N)=O)cc(OC)c21 [compound 69]
< 0.03 | < 1 | < 0.03 | 0.03 to 0.1 | CCc1nc(C)oc1C(=O)Nc1nc2cc(C(N)=O)cnc2n1C/C=C/Cn1c(NC(=O)c2oc(C)nc2CC)nc2cc(C(N)=O)cc(OCCCO)c21 [compound 95]
< 0.03 | < 1 | < 0.03 | 0.03 to 0.1 | CCc1nc(C)oc1C(=O)/N=c1\sc2cc(C(N)=O)cnc2n1C/C=C/Cn1c(NC(=O)c2oc(C)nc2CC)nc2cc(C(N)=O)cc(OCCCO)c21 [compound 109]
